Assays:
MDA-MB-231 cells [1] = test: Cell cycle analysis (propidium iodide, flow cytometry); type: cell-based, human; settings: 24 h treatment
Description: Tubulin-binding agents interfere with mitotic spindle formation during cell division. […] Thus, we investigated whether 27 and 28 affect the progression of human breast cancer MDA-MB-231 cells through the cell cycle. […] In contrast, compounds 27 and 28 arrested the cell cycle in the M phase (mitosis) at concentrations as low as 0.03 and 0.1 μM (for compound 27 and 28 respectively).
(§1) Figure 6 Mechanism of action of the benzofurane derivatives. (A) Inhibition of cell cycle progression. MDA-MB-231 cells were treated with DMSO (control) or compounds 8, 27 or 28 for 24 h. Next, the cells were harvested, stained with propidium iodide (PI), and cell cycle distribution was evaluated by flow cytometry. Percentages of cells in the different phases of the cell cycle are indicated. (B) Caspase-3 activity. MDA-MB-231 cells were seeded in 48-well plates at 40,000 cells/cm². After 24 h, different concentrations of compounds 8, 27 or 28 and 2 µM of the caspase-3 substrate DEVD-NucView488 were added. After 16 h, the cells were incubated with 2 µg/ml Hoechst 33342 to stain the nucleus, and imaged. (C) Disruption of the vascular network. HMEC-1 cells were cultured on matrigel for 3 h to allow the formation of tube-like structures. Next, different concentrations of compounds were added. Upper panel: After 90 min, pictures were taken and the tubular network was scored (3: intact network, 0: network completely destroyed). Bars show average ± SEM (n = 4). Lower panel: Microscopic pictures of the tubular network 3 h after addition of compound.
MDA-MB-231 cells were seeded in 6-well plates at 125,000 cells/well in DMEM with 10% FBS. After 24 h, the cells were exposed to different concentrations of the compounds. After 24 h, the DNA of the cells was stained with propidium iodide using the CycleTEST PLUS DNA Reagent Kit (BD Biosciences, San Jose, CA). The DNA content of the stained cells was assessed by flow cytometry on a FACSCalibur flow cytometer and analyzed with CellQuest software (BD Biosciences) within 3 h after staining. Cell debris and clumps were excluded from the analysis by appropriate dot plot gating. Percentages of sub-G1, G1, S, and G2/M cells were estimated using appropriate region markers.

HMEC-1 cells [2] = test: IncuCyte scratch wound migration assay with PI uptake; type: cell-based; settings: for uptake of PI (toxicity): at the lowest concentration inhibiting wound closure (0.5, 0.06 and 0.06 µM)
Description: Proper tubulin organization is not only required for cell division but also for cell motility and migration. Therefore, we evaluated the capacity of the compounds to inhibit the migration of HMEC-1 endothelial cells. To this end, we used the 96-well IncuCyte® scratch wound assay. After the creation of a cell-free zone (wound) in a confluent cell monolayer, compounds were added, and relative wound density was measured every minute and visualized in time-course plots. PI was added to all wells to visualize toxicity over time, i.e. only dead cells take up this cell-impermeable dye.
Figure 7 Inhibition of HMEC-1 migration. The 96-well IncuCyte® scratch wound assay was used to create a cell-free zone (wound) in a confluent cell monolayer. Next, compounds were added and the relative wound density was measured every minute and visualized in time-course plots (left panels). PI is added to all wells to visualize toxicity over time, i.e. only dead cells take up this cell-impermeable dye (right panels). Average ± SEM (n = 3) are shown.
Wounds were created in confluent HMEC-1 cells by means of the “Incucyte® wound maker”. Next, different concentrations of compound and PI were added and images were taken every 2 min for the duration of the experiment. The algorithm masks each phase-contrast image to identify the position of the wounded (cell-free) and unwounded (cell-occupied) zones. Relative wound density is calculated and visualized in time-course plots.

HMEC-1 cells [3] = test: Disruption of a preformed vascular network on matrigel (tube formation); type: cell-based, human
Description: as §1
Another feature of colchicine-site binding agents is their ability to destroy a 3-dimensional network of endothelial cells. To determine the vascular disrupting capacity of compounds 27 and 28, HMEC-1 cells were seeded on top of matrigel. This tumor derived extracellular matrix induces within 3 h the rearrangement of endothelial cells into a vascular network. Compounds 27 and 28 caused a disruption of the tubular network in a concentration-dependent manner (Fig. 6C).
Wells of a 96-well plate were coated with 70 µl matrigel (10 mg/ml, BD Biosciences, Heidelberg, Germany) at 4 °C. After gelatinization at 37 °C during 30 min, HMEC-1 cells were seeded at 60,000 cells/well on top of the matrigel in 200 µl DMEM containing 10% FCS. After 3 h of incubation at 37 °C, when the endothelial cells had reorganized to form tube-like structures, the compounds were added. Ninety minutes later, the cultures were photographed at 100 × magnification and analyzed using digitalized analysis.

A2780AD cells = test: Anti-proliferative activity, A2780AD (MDR overexpressing P-glycoprotein) ovarian carcinoma cells; type: cell-based, human; settings: Homo sapiens, A2780AD; P-glycoprotein overexpressing resistant line; mean ± standard error of three independent experiments; read-out: A2780 AD IC50
Text: One of the most relevant causes of tumor resistance to chemotherapy is the overexpression of membrane pumps which remove the chemotherapeutic agents from the treated cells.

MDA-MB-231 cells [4] = test: Caspase-3 activity / apoptosis in live cells (fluorescence microscopy); type: cell-based, human; settings: 1 µM, after 24 h
Description: as §1
To confirm the capacity of compounds 27 and 28 to induce apoptosis, MDA-MB-231 cells were treated with the compounds for 24 h in the presence of NucView® 530 Caspase-3. This substrate is cleaved by active caspase-3 activity (the main executioner enzyme during apoptosis) to generate a fluorescent derivative that is analyzed using fluorescence microscopy.
MDA-MB-231 cells were seeded at 40,000 cells/cm². After 24 h, cells were incubated in Fluorobrite DMEM (Gibco), containing the compound and 2 µM of the caspase-3 substrate DEVD-NucView488 (Biotium, Hayward, CA). After 16 h, the DNA was stained with Hoechst33342 and the cells were imaged by fluorescence microscopy.

| SMILES | cells in the sub-G1 phase (indicative of apoptosis) (MDA-MB-231 cells [1]) | lowest concentration arresting the cell cycle in the M phase (MDA-MB-231 cells [1]) [µM] | lowest concentration inhibiting wound closure (HMEC-1 cells [2]) [µM] | uptake of PI (toxicity) (HMEC-1 cells [2]) | disruption of the vascular (tubular) network (HMEC-1 cells [3]; 0.01 μM) | disruption of the vascular (tubular) network (HMEC-1 cells [3]; 0.1 μM) | IC50 (A2780AD cells) [nM] | apoptotic rate (apoptotic cells, caspase-3 substrate) (MDA-MB-231 cells [4]) |
| --- | --- | --- | --- | --- | --- | --- | --- | --- |
| COCc1cc2cccc(NC(C)=C3C(=O)CC(c4ccccc4)CC3=O)c2o1 (stereo not shown) [Compound 27, 2-(1-((2-(Methoxymethyl)benzofuran-7-yl)amino)ethylidene)-5-phenylcyclohexane-1,3-dione] | caused an increase of cells in the sub-G1 phase | 0.03 | 0.06 | No increased uptake of PI | antivascular effect was still evident | nearly completely abrogated the vascular network | 39 ± 15 | ~ 30% |
| CC(Nc1cccc2cc(COCCCO)oc12)=C1C(=O)CC(c2ccccc2)CC1=O (stereo not shown) [Compound 28, 2-(1-((2-((3-Hydroxypropoxy)methyl)benzofuran-7-yl)amino)ethylidene)-5-phenylcyclohexane-1,3-dione] | caused an increase of cells in the sub-G1 phase | 0.1 | 0.06 | No increased uptake of PI | antivascular effect was still evident | nearly completely abrogated the vascular network | 76 ± 15 | ~40% |

Source: paper PMC5844890 (Scientific Reports, 2018)
